Data set [1] relates to Kaposi's sarcoma associated herpesvirus (KSHV) lytic replication. As to the kind of experiment: in vitro. The class given is cell-based. Conditions: human; CC50 (iSLK.219 cells) / IC50 (KSHV lytic replication); read-out: Selective Index (CC50/IC50). From the text: (§1) Human gamma herpes viruses such as Kaposi’s sarcoma-associated herpes virus (KSHV) is a type of pathogenic virus related to Kaposi’s sarcoma, like epidemic KS, posttransplant KS, multicentric Castleman’s disease, and primary effusion lymphoma. Anti-infection towards lytic replication of KSHV plays a pivotal role as decreased a risk of KS, which were evidenced in cases of AIDS-associated epidemic KS patients. In our exhaustive study to explore bioactivities of metabolites, an inhibition assay on lytic replication of KSHV was investigated for compounds 1 and 2 referring to the previous experiments. […] The details of the dose-dependent manner were shown in Figure S1, Supplementary Materials. More elaborate procedures of anti-KSHV assay were also stated in Supplementary Materials.
(§2) Figure 5 The effects of positive control cidofovir (CDV), 1 and 2 on human iSLK.219 cells viabilities and on lytic replication of KSHV infecting Vero cells were measured in vitro.
(§3) Human iSLK.219 cells were used to determine the antiviral activity of desired compounds against KSHV. The cells harbor the rKSHV.219 virus that encodes green fluorescent protein (GFP) under control of the elongation factor 1α promoter (EF-1α) and lytic replication of KSHV was reactivated with 1 µg/mL doxycycline (Dox) (Beyotime) and 1.2 mM sodium butyrate (NaB) (Sigama). Cells grown to 70% confluence 96-well tissue culture plates were treated with indicated concentrations of compounds in present of Dox and NaB. Then cell viability was assessed at 48 h post drugs-induction by AlamarBlue® Cell Viability Assay (Invitrogen) according to the manufacturer’s protocol. The luminescent signal was measured using the Envison 2102 Multilabel Reader (Perkin Elmer, Waltham, MA, USA). The 50% cytotoxic concentration (CC50) for each compound was calculated from these dose-response curves using Graphpad5.0 Prism. The results were presented as mean values with standard deviations (n = 3) […]
(§4) The antiviral effects of compounds on KSHV were determined by infectivity assay as previously described. The supernatants from iSLK.219-treated or untreated with the compounds in the presence of Dox and NaB were collected at 48 h. Then, the supernatants were used to infect the Vero cells seeded in a 96-well plate as previously reported using centrifugation at 1500× g for 60 min [4]. The supernatants were then removed and replaced with flash DMEM medium. At 48 h, the expression of GFP per well in Vero cells was detected and analyzed using the Operetta High-Content Screening System (HCS) (Perkin Elmer). Nine image fields per well were recorded by the automated microscope based HCS and the GFP intensity per well was calculated using the Harmony 3.5 software (Perkin Elmer). Data were normalized as the fold change compared to the DMSO control. The IC50 (50% effective concentration) values correspond to compound concentrations required to reduce quantitative expression of the intensity of GFP by 50%. The results are presented as the mean values with […]
(§5) Figure S1. HRESIMS spectrum of japopyrone A (1).

The subject of data set [2] is Kaposi’s sarcoma associated herpesvirus (KSHV). Description: microbe, parasite or virus in culture. The class given is cell-based. Conditions: Human gammaherpesvirus 8, Vero, 48 h.
Text: as §1, §2, §3, §4, §5

Data set [3] can be described thus: Cell viability of iSLK.219 cells (AlamarBlue Cell Viability Assay). Conditions: iSLK.219 cells harbouring rKSHV.219 virus, human iSLK.219 cells, in presence of Dox and NaB. The class given is cell-based. On the procedure:
as §2, §3
as §4, with “control.” for “control. The IC50 (50% effective concentration) values correspond to compound concentrations required to reduce quantitative expression of the intensity of GFP by 50%. The results are presented as the mean values with”

A short description of data set [4]: Cytotoxicity assay against human cancer cell line HL-60. Conditions: HL-60 cells. In kind it is cell-based. From the text:
(§6) Natural products have provided a rich resource for the discovery of new drugs, innovative therapeutic agents, and lead structures. In our studious research towards the discovery for new lead compounds and useful bioactivities from Chinese traditional herbs, several bioactivity screenings such as cytotoxicity assays against five human cancer cell lines (HL-60, SMMC-7721, A-549, MCF-7, and SW480), inhibitory activities on NO production, and inhibitory activities on β-site amyloid precursor protein cleaving enzyme 1 (BACE1), were carried out for compounds 1 and 2.

Data set [5] in a line: Cytotoxicity assay against human cancer cell line SMMC-7721. Conditions: SMMC-7721 cells. The class given is cell-based.
Text: as §6

Data set [6] in a line: Cytotoxicity assay against human cancer cell line A-549. The class given is cell-based. Conditions: A-549 cells.
Text: as §6

Data set [7] can be described thus: Cytotoxicity assay against human cancer cell line MCF-7. In kind it is cell-based. Conditions: MCF-7 cells.
Text: as §6

Data set [8] can be described thus: Cytotoxicity assay against human cancer cell line SW480. The class given is cell-based. Conditions: SW480 cells.
Text: as §6

The test system of another data set is NO production. As to the kind of experiment: NO production inhibition assay. The class given is cell-based.
Text: as §6

Data set [9] deals with β-site amyloid precursor protein cleaving enzyme 1 (BACE1) (Homo sapiens, UniProt P56817). As to the kind of experiment: BACE1 inhibition assay. In kind it is biochemical.
Text: as §6

This note sets out measurements from paper PMC6272854, “Two New Bioactive α-Pyrones from Hypericum japonicum” (Molecules, 2016).

Usually IC50 stands for the point on the concentration scale where inhibition reaches its midpoint. A lower IC50 goes with greater potency. For orientation: CC50 means the concentration that lowers cell viability or growth by half.

β-site amyloid precursor protein cleaving enzyme 1 (BACE1), sequence (P56817 22-501 limits assumed, species assumed): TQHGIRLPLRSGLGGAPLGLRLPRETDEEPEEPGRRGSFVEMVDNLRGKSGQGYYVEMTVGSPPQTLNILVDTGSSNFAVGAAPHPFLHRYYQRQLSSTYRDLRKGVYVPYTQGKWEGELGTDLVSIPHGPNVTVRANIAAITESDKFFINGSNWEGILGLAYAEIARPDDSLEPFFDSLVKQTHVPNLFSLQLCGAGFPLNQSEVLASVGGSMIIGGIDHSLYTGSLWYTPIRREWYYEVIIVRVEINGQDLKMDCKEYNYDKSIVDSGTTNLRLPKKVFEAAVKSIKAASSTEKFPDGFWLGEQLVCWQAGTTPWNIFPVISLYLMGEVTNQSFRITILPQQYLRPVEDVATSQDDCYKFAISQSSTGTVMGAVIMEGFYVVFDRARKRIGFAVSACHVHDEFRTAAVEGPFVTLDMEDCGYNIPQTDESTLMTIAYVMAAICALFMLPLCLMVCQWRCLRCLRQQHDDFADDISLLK

On to `Nc1ccn(C[C@@H](CO)OCP(=O)(O)O)c(=O)n1` [CDV, cidofovir, reference compound], for which, in data set [1], the selectivity ratio at 48 h is over 250. Moreover, the 50% inhibitory concentration (IC50) in [2] is under 0.004 µM. Besides, the half-maximal cytotoxic concentration (CC50) at 48 h in data set [3] was over 1 µM.

As to `COc1cc(-c2cc3c(c(=O)o2)C(C)(C)[C@H](C)O3)ccc1O` [Compound 1, japopyrone A], the selectivity ratio at 48 h in [1] was over 2.34. In addition, the IC50 in [2] is 85.3 µM; in [4], over 40 µM; in data set [5], over 40 µM; in data set [6] it was over 40 µM; in data set [7] it was over 40 µM; in [8], over 40 µM. In addition, the 50% inhibitory concentration (IC50) in the data set on NO production is over 25 µM; in data set [9], over 40 µM. For the same compound, the CC50 at 48 h in [3] was over 200 µM.

On to `COc1ccc(-c2cc3c(c(=O)o2)C(C)(C)[C@H](C)O3)cc1OC` [Compound 2, japopyrone B], for which the selectivity ratio at 48 h in data set [1] is over 6.79. The concentration for half-maximal inhibition (IC50) is 29.5 µM in data set [2]; over 40 µM in [4]; over 40 µM in data set [5]; over 40 µM in data set [6]; over 40 µM in data set [7]; over 40 µM in data set [8]. The IC50 is over 25 µM in the data set on NO production and over 40 µM in data set [9]. For the same compound, the cytotoxic concentration (CC50) at 48 h in [3] is over 200 µM.
